In PubChem BioAssay AID2060502 (Molecular Pharmacology Branch, DTP, NCI, 2025):

Tested on: 885724-159-R-J1-PDC complex spheroid viability
Assay: Anticancer human tumor 885724-159-R-J1-PDC patient-derived pancreatic adenocarcinoma cell line growth inhibition [GQUAD]
Conditions: for IC50: curve of first compound; for viability, T/C: stronger effect = lower value; active means viability on the fitted dose curve at most 10% of control; inactive means the rest
Outline: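 Multi-cell-type spheroids of tumor cells with HUVEC and mesenchymal stem cells, treated with drug combinations. Concentrations descend in half-log steps from near clinical Cmax, or from 10 microM where Cmax is unknown; viability read-out.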

[1] = second compound 0.0316 µM, first compound 0.0316 µM
[2] = second compound 0.0316 µM, first compound 0.1 µM
[3] = second compound 0.0316 µM, first compound 0.316 µM
[4] = second compound 0.0316 µM, first compound 1 µM
[5] = second compound 0.0316 µM, first compound 3.16 µM
[6] = second compound 0.0316 µM, first compound 10 µM
[7] = second compound 0.1 µM, first compound 0.0316 µM
[8] = second compound 0.1 µM, first compound 0.1 µM
[9] = second compound 0.1 µM, first compound 0.316 µM
[10] = second compound 0.1 µM, first compound 1 µM
[11] = second compound 0.1 µM, first compound 3.16 µM
[12] = second compound 0.1 µM, first compound 10 µM
[13] = second compound 0.316 µM, first compound 0.0316 µM
[14] = second compound 0.316 µM, first compound 0.1 µM
[15] = second compound 0.316 µM, first compound 0.316 µM
[16] = second compound 0.316 µM, first compound 1 µM
[17] = second compound 0.316 µM, first compound 3.16 µM
[18] = second compound 0.316 µM, first compound 10 µM
[19] = second compound 1 µM, first compound 0.0316 µM
[20] = second compound 1 µM, first compound 0.1 µM
[21] = second compound 1 µM, first compound 0.316 µM
[22] = second compound 1 µM, first compound 1 µM
[23] = second compound 1 µM, first compound 3.16 µM
[24] = second compound 1 µM, first compound 10 µM
[25] = second compound 3.16 µM, first compound 0.0316 µM
[26] = second compound 3.16 µM, first compound 0.1 µM
[27] = second compound 3.16 µM, first compound 0.316 µM
[28] = second compound 3.16 µM, first compound 1 µM
[29] = second compound 3.16 µM, first compound 3.16 µM
[30] = second compound 3.16 µM, first compound 10 µM
[31] = second compound 10 µM, first compound 0.0316 µM
[32] = second compound 10 µM, first compound 0.1 µM
[33] = second compound 10 µM, first compound 0.316 µM
[34] = second compound 10 µM, first compound 1 µM
[35] = second compound 10 µM, first compound 3.16 µM
[36] = second compound 10 µM, first compound 10 µM
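Further: spheroids exposed to agents for seven days before readout.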
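Wherever viability, T/C is given: percent of vehicle control viability where 100% = DMSO wells.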

CCCS(=O)(=O)Nc1ccc(F)c(C(=O)c2c[nH]c3ncc(-c4ccc(Cl)cc4)cc23)c1F + Cc1cnc(CNC(=O)c2c(=O)c3ccc(N4CCCN(C)CC4)nc3n3c2sc2ccccc23)cn1
inactive: viability, T/C [1] 95% | viability, T/C [2] 106% | viability, T/C [3] 113% | viability, T/C [4] 141% | viability, T/C [5] 126% | viability, T/C [6] 74% | viability, T/C [7] 124% | viability, T/C [8] 128% | viability, T/C [9] 116% | viability, T/C [10] 135% | viability, T/C [11] 128% | viability, T/C [12] 83% | viability, T/C [13] 94% | viability, T/C [14] 103% | viability, T/C [15] 96.3% | viability, T/C [16] 98% | viability, T/C [17] 102% | viability, T/C [18] 72.2% | viability, T/C [19] 97.6% | viability, T/C [20] 84.6% | viability, T/C [21] 96% | viability, T/C [22] 96.7% | viability, T/C [23] 115% | viability, T/C [24] 70.6% | viability, T/C [25] 76.7% | viability, T/C [26] 75.2% | viability, T/C [27] 78.8% | viability, T/C [28] 80.3% | viability, T/C [29] 91.6% | viability, T/C [30] 58.7% | viability, T/C [31] 62.8% | viability, T/C [32] 71.2% | viability, T/C [33] 61.1% | viability, T/C [34] 73.4% | viability, T/C [35] 76% | viability, T/C [36] 50.2%
> 10 µM: IC50 (second compound 0.0316 µM) | IC50 (second compound 0.1 µM) | IC50 (second compound 0.316 µM) | IC50 (second compound 1 µM) | IC50 (second compound 3.16 µM) | IC50 (second compound 10 µM)

CC(=O)O[C@H]1C(=O)[C@@]2(C)[C@H]([C@H](OC(=O)c3ccccc3)[C@]3(O)C[C@H](OC(=O)[C@H](O)[C@@H](NC(=O)c4ccccc4)c4ccccc4)C(C)=C1C3(C)C)[C@]1(OC(C)=O)CO[C@@H]1C[C@@H]2O + Cc1[nH]c2ccc(F)cc2c1-c1nc2c3cccnc3c3ncccc3c2[nH]1
inactive: viability, T/C [1] 102% | viability, T/C [2] 76.5% | viability, T/C [3] 85.7% | viability, T/C [4] 91.4% | viability, T/C [5] 81.6% | viability, T/C [6] 83.3% | viability, T/C [7] 112% | viability, T/C [8] 83.2% | viability, T/C [9] 78% | viability, T/C [10] 84.8% | viability, T/C [11] 86.5% | viability, T/C [12] 87% | viability, T/C [13] 87.8% | viability, T/C [14] 77.8% | viability, T/C [15] 82.8% | viability, T/C [16] 79.6% | viability, T/C [17] 80.8% | viability, T/C [18] 80.2% | viability, T/C [19] 69.5% | viability, T/C [20] 54.7% | viability, T/C [21] 61.8% | viability, T/C [22] 51.1% | viability, T/C [23] 78.6% | viability, T/C [24] 55.5% | viability, T/C [25] 16.7% | viability, T/C [31] 56.7% | viability, T/C [32] 53.2% | viability, T/C [33] 54.5% | viability, T/C [34] 55% | viability, T/C [35] 68.5% | viability, T/C [36] 59.2%
< 0.0316 µM: IC50 (second compound 3.16 µM)
> 10 µM: IC50 (second compound 0.0316 µM) | IC50 (second compound 0.1 µM) | IC50 (second compound 0.316 µM) | IC50 (second compound 1 µM) | IC50 (second compound 10 µM)
active: viability, T/C [26] 6.91% | viability, T/C [27] 7.17% | viability, T/C [28] 8.73% | viability, T/C [29] 10% | viability, T/C [30] 5.61%

O=c1[nH]cc(F)c(=O)[nH]1 + Cc1cnc(CNC(=O)c2c(=O)c3ccc(N4CCCN(C)CC4)nc3n3c2sc2ccccc23)cn1
inactive: viability, T/C [1] 108% | viability, T/C [2] 107% | viability, T/C [3] 116% | viability, T/C [4] 118% | viability, T/C [5] 87.1% | viability, T/C [6] 88.8% | viability, T/C [7] 103% | viability, T/C [8] 107% | viability, T/C [9] 112% | viability, T/C [10] 116% | viability, T/C [11] 92.1% | viability, T/C [12] 102% | viability, T/C [13] 99.2% | viability, T/C [14] 109% | viability, T/C [15] 91.5% | viability, T/C [16] 103% | viability, T/C [17] 96.4% | viability, T/C [18] 97.1% | viability, T/C [19] 84.2% | viability, T/C [20] 84.1% | viability, T/C [21] 100% | viability, T/C [22] 87.1% | viability, T/C [23] 86.2% | viability, T/C [24] 83% | viability, T/C [25] 78.2% | viability, T/C [26] 89.7% | viability, T/C [27] 90.5% | viability, T/C [28] 78.1% | viability, T/C [29] 83.8% | viability, T/C [30] 84.4% | viability, T/C [31] 81.7% | viability, T/C [32] 77% | viability, T/C [33] 74.8% | viability, T/C [34] 84% | viability, T/C [35] 77.8% | viability, T/C [36] 72.2%
> 10 µM: IC50 (second compound 0.0316 µM) | IC50 (second compound 0.1 µM) | IC50 (second compound 0.316 µM) | IC50 (second compound 1 µM) | IC50 (second compound 3.16 µM) | IC50 (second compound 10 µM)

CCCS(=O)(=O)Nc1ccc(F)c(C(=O)c2c[nH]c3ncc(-c4ccc(Cl)cc4)cc23)c1F + CN(C)c1ccc(Nc2c3ccc(NC(=O)CCN4CCCC4)cc3nc3cc(NC(=O)CCN4CCCC4)ccc23)cc1
inactive: viability, T/C [1] 112% | viability, T/C [2] 114% | viability, T/C [3] 116% | viability, T/C [4] 130% | viability, T/C [5] 139% | viability, T/C [6] 84.7% | viability, T/C [7] 99.8% | viability, T/C [8] 98.1% | viability, T/C [9] 121% | viability, T/C [10] 129% | viability, T/C [11] 133% | viability, T/C [12] 65.5% | viability, T/C [13] 97% | viability, T/C [14] 99.3% | viability, T/C [15] 108% | viability, T/C [16] 107% | viability, T/C [17] 146% | viability, T/C [18] 66% | viability, T/C [19] 80.4% | viability, T/C [20] 82% | viability, T/C [21] 109% | viability, T/C [22] 118% | viability, T/C [23] 134% | viability, T/C [24] 64.4% | viability, T/C [25] 81% | viability, T/C [26] 74.2% | viability, T/C [27] 101% | viability, T/C [28] 101% | viability, T/C [29] 114% | viability, T/C [30] 48.9% | viability, T/C [31] 80.2% | viability, T/C [32] 73.1% | viability, T/C [33] 82.1% | viability, T/C [34] 99.5% | viability, T/C [35] 93.9% | viability, T/C [36] 16.5%
5.73 µM: IC50 (second compound 10 µM)
> 10 µM: IC50 (second compound 0.0316 µM) | IC50 (second compound 0.1 µM) | IC50 (second compound 0.316 µM) | IC50 (second compound 1 µM)
9.74 µM: IC50 (second compound 3.16 µM)
